# According to paper PMC5467173, “Blood-brain-barrier spheroids as an in vitro screening platform for brain-penetrating agents” (Nature Communications, 2017):
# How the values were obtained:
# [1] = system: multicellular BBB spheroids (astrocytes, HBVP and HBMEC); test: Transport of fluorescently labelled peptides into multicellular BBB spheroids (primary HBMEC), confocal microscopy; assay type: in vitro ADME, human
# Procedure: Multicellular BBB spheroids (composed of astrocytes, HBVP and HBMEC (or hCMEC/D3)) were established for 48–72 h as described earlier, and pooled into a 1.5 ml Lobind microcentrifuge tube (Eppendorf) in 1.0 ml HBMEC (or hCMEC/D3) working media. […] Spheroids were washed with PBS, fixed with 3.7% formaldehyde and imaged using a confocal microscope as described in earlier sections. The mean fluorescence intensity inside each spheroid at 88 μm depth was quantified using ImageJ software and plotted using GraphPad Prism. […] To inhibit transcytosis, spheroids were incubated with each peptide (5 μM final concentration) in cold working medium (on ice) for 3 h. For cryo-sectioning, spheroids were embedded in optimum cutting temperature compound (Tissue-Tek, Sakura Finetek, Torrance, CA), frozen on dry ice and sliced into 10 μm sections. Spheroid sections were imaged under a Nikon epi-fluorescence inverted microscope.
# [2] = system: hCMEC/D3 / HBVP / astrocyte triple co-culture transwell model; assay type: in vitro ADME, human
# Procedure: Both the apical and basal sides of 24-well transwell insert (0.4 μm pore size; Greiner Bio-One, Cat. # 662,641) were coated with rat-tail collagen (5 μg ml^−1 in PBS; Olaf Pharmaceuticals, Worcester, MA) overnight at 4 °C. Each transwell was inverted, and 5 × 10^4 HBVP cells (in 50 μl pericyte medium) were seeded on the basal side of the insert. The inserts were encased in an inverted plate, and allowed to adhere in a humidified incubator for 2 h at 37 °C with 5% CO2. Inserts were then removed and placed within a 24-well plate (upright) containing 300 μl pericyte medium, ensuring that the HBVP cells on the basal side of the insert was properly submerged in the medium. […] hCMEC/D3 cells were seeded on the apical side of the insert (in 200 μl volume) in EGM-2. In a separate 24-well plate, 5.0 × 10^4 astrocytes were seeded in AGM. […] TEER measurements of inserts without cells were subtracted from TEER values obtained from inserts containing cells (measured in ohms (Ω)). […]
# After 84 h of co-culture in the transwell, TAMRA- angiopep-2 or TAMRA-scramble were added into the apical side of the insert at a final concentration of 10 μM. […] To assess the apical-to-basolateral permeability, the mean fluorescence intensity of the basal side of the transwell was quantified over time using ImageJ software and plotted using GraphPad Prism.
# brain parenchyma = test: Ex vivo imaging of angiopep-2 in mouse brain after tail vein injection; settings: Cy5.5-labelled peptide, 100 μg via tail vein, mice killed after 24 h
# Procedure: Cy5.5-angiopep-2 or Cy5.5-scramble were diluted to a final concentration of 1 mg ml^−1 in 0.9% NaCl irrigation solution (Hospira, Lake Forest, IL). 100 μl of each peptide (total of 100 μg) was administered intravenously via tail vein injection. After 24 h, mice were killed (by CO2 asphyxiation), and immediately perfused with PBS followed by 10% formalin solution (Sigma-Aldrich). Brains were excised, and a coronal cut through the cerebral cortex was made with a sharp scalpel. The brains were washed several times with PBS containing 0.05% Tween-20, and incubated with DyLight 488 lectin (Vector Laboratories, Burlingame, CA) and Hoechst dye (Life Technologies; 1:1,000 dilution) for 1 h in PBS containing 0.02% Tween-20. This was followed by 3 washes (15 min each) with PBS containing 0.05% Tween-20. […] The brain tissue was imaged under a confocal microscope using a × 40 oil immersion objective. Z-slices captured through each spheroid (up to 100 μm-deep) were merged to generate a 2D maximum intensity projection using the ZEN blue imaging software (version 2012). Animal experiments described here are listed in the Brigham and Women’s Hospital Animal Experimentation Protocol 2016N000300 Translational Neurooncology Core (BWH IACUC approved 2016).
# [3] = system: BBB spheroids (astrocytes, HBVP and hCMEC/D3 cells); test: Evaluation of small molecule transport into BBB spheroids using MALDI-MSI; assay type: in vitro ADME, human; settings: 10 μM, 24 h, 37 °C; 12 μm sections; 30 μm pixel step; nspheroid=150, ntissue=2
# Procedure: BBB spheroids were established (using astrocytes, HBVP and hCMEC/D3 cells) for 48 h as described earlier. Approximately 150 spheroids per group were pooled into a 1.5 ml microcentrifuge tube in 1 ml of hCMEC/D3 working media. BKM120 or Dabrafenib was added into each tube at a final concentration of 10 μM and incubated for 24 h at 37 °C under constant rotation. Spheroids were washed 5 × with wash buffer (150 mM ammonium acetate in HPLC grade water, pH 7), and then transferred into an UltraFlux 0.2 ml PCR tube (BioExpress) in 200 μl of wash buffer. The spheroids were then, pooled at the bottom of the tube, and snap-frozen in a dry ice/ethanol bath. The top of the frozen tube was mounted onto a cryostat holder, and the bottom of the tube containing the spheroids was sectioned into 12 μm slices using a Microm HM550 cryostat, with the chamber and the specimen holder chilled at −26 °C. Sectioned tissues embedded in the frozen wash buffer were thaw-mounted onto indium tin oxide (ITO) coated microscopic slides (Bruker Daltonics) for MALDI-MSI, and regular positively charged glass slides for haematoxylin and eosin (H/E) staining. The tissues were allowed to dry for at least 15 min in a dessicator. […]
# [4] = cited from earlier work
# Excerpt: Because most drugs are non-fluorescent, we explored an alternative strategy to detect drugs within the BBB spheroids using matrix-assisted laser desorption/ionization mass spectrometry imaging (MALDI-MSI).
# [5] = system: BBB spheroid surface barrier; test: Co-incubation with high molecular weight dextran (integrity of spheroid surface barrier); settings: drug 10 μM with FITC-dextran 70 kDa 10 μg ml^−1, 24 h; 88 μm depth; nspheroid=3–6
# Procedure: Multicellular BBB spheroids were formed through co-culturing astrocytes, HBVP and either HBMEC or hCMEC/D3 as described earlier for 48 h. Spheroids were incubated with increasing concentration of VEGF-A (between 5 and 100 ng ml^−1) and 10 μg ml^−1 of TRITC-Dextran (155 kDa; Sigma-Aldrich) or FITC-Dextran (70 kDa; Sigma-Aldrich) in the appropriate working medium for 24 h at 37 °C with 5% CO2. Spheroids were washed 3 times with PBS (5 min each), transferred into a Nunc Lab-Tek II thin-glass 8-well chambered coverglass (Thermo Scientific) and imaged under a confocal microscope as described earlier. Quantification of spheroid permeability to fluorescent dextran was performed using ImageJ software (http://imagej.net/Fiji). The mean fluorescence intensity of the core of each spheroid at 88 μm depth was quantified and plotted using GraphPad Prism (version 7.0 software).
# To examine if angiopep-2 affects the overall permeability of the spheroid surface barrier, spheroids were co-incubated with 10 μM of TAMRA-angiopep (or TAMRA-scramble) and FITC-dextran (70 kDa; 10 μg ml^−1) as described earlier for 3 h at 37 °C on a rotator. […] The mean TAMRA and FITC fluorescence intensity of the core of each spheroid at 88 μm depth was quantified using ImageJ software and plotted using GraphPad Prism.
# [6] = system: multicellular BBB spheroids (astrocytes, HBVP and hCMEC/D3); test: Transport of fluorescently labelled peptides / CPP screen in multicellular BBB spheroids (hCMEC/D3), confocal microscopy; assay type: in vitro ADME, human
# Procedure: Sterile 1% agarose (w/v) was prepared by adding […] of molecular biology grade agarose (Bio-rad) into 50 ml of PBS in a conical flask, and boiled in a microwave until completely dissolved. The melted agarose solution was transferred into a sterile tissue culture hood, and 50 μl of the solution was dispensed into each well of a 96-well plate while it was still hot using a multi-channel pipette, and allowed to cool/solidify (∼15 min). Primary human astrocytes, HBVP and HBMEC were released by trypsin/EDTA (Thermo Scientific) and resuspended in HBMEC working medium. The concentration of each cell type was determined using a haemocytometer. 1 × 10^3 of each cell type was seeded onto the agarose gel in each well of the 96-well plate in a 1:1:1 ratio (final volume=100 μl). Cells were placed in a humidified incubator at 37 °C with 5% CO2, and 95% natural air for 48–72 h to allow for the assembly of multicellular BBB spheroids. For spheroid formation using the immortalized hCMEC/D3 EC line: hCMEC/D3, astrocytes and HBVP were released by trypsin/EDTA and resuspended in hCMEC/D3 working medium. 1.5 × 10^3 of each cell type were seeded onto the agarose gel in each well of the 96-well plate in a 1:1:1 ratio, and spheroids were allowed to form as described above.
# Angiopep-2 (or scramble) peptide labelled with a Cy5 was added into each tube at a final concentration of 5 and 10 μM, and incubated for 3 h at 37 °C on a rotator. Spheroids were washed with PBS, fixed with 3.7% formaldehyde and imaged using a confocal microscope as described in earlier sections. […] The same methodology was applied for angiopep-2/scramble peptide labelled with a TAMRA (tetramethylrhodamine) dye. To inhibit transcytosis, spheroids were incubated with each peptide (5 μM final concentration) in cold working medium (on ice) for 3 h. For cryo-sectioning, spheroids were embedded in optimum cutting temperature compound (Tissue-Tek, Sakura Finetek, Torrance, CA), frozen on dry ice and sliced into 10 μm sections. Spheroid sections were imaged under a Nikon epi-fluorescence inverted microscope. […]
# [7] = Stability in hCMEC/D3 working media containing 2% human serum; assay type: in vitro ADME; settings: Cy5.5-CPP 5 μM in hCMEC/D3 working media (2% human serum), 37 °C, LC-MS extracted ion current, (EICt3/EICt0) × 100
# Procedure: Cy5.5-angiopep and Cy5.5-scramble. Angiopep and scramble peptides (50 μM) were incubated in hCMEC/D3 working media (containing 2% human serum) at 37 °C. […] The material was resuspended in 30 μl of 50:50 water:acetonitrile containing 0.1% TFA. […] The process was repeated (n=3) for each peptide.
compound,measurement,setting,value
angiopep-2,Influx of TAMRA-labelled peptide on co-incubation with FITC-dextran,"[1]; 10 μM peptide, FITC-dextran 70 kDa 10 μg ml^−1, 3 h, 37 °C, 88 μm depth, nspheroid=3–6, nexperiment=3, versus scrambled peptide",significantly higher influx
same,"Peptide level in the core of fixed, cryosectioned spheroids (fluorescence microscopy)","[1]; 10 μm cryosections, epi-fluorescence",high level
same,Influx of Cy5-labelled peptide at 4 °C (transcytosis inhibited) versus 37 °C,"[1]; spheroids with primary HBMECs, 10 μM, 3 h, 88 μm depth",significantly reduced
same,Influx of Cy5-labelled peptide into spheroid (mean Cy5 intensity at 88 μm depth),"[1]; spheroids with primary HBMECs, 5 and 10 μM, 3 h, 37 °C, confocal microscopy, compared with scrambled control, nspheroid=10, nexperiment=3",substantial influx
same,Apical-to-basolateral permeability in co-culture transwell compared to inserts with no ECs,[2],significantly lower permeability
same,Transwell permeability of angiopep-2 versus scrambled control,[2],unable to differentiate
same,Accumulation in the brain parenchyma in vivo (fluorescence of brain cryosections),brain parenchyma,extravasation and accumulation
CC(C)(C)c1nc(-c2cccc(NS(=O)(=O)c3c(F)cccc3F)c2F)c(-c2ccnc(N)n2)s1 [dabrafenib],Drug detected in sections of BBB spheroids by MALDI-MSI,[3],not detected
same,BBB penetrance,[4],limited BBB penetrance
same,Effect on ability of BBB spheroids to restrict entry of high molecular weight dextran,[5],did not affect
"VSALK [Bip(2), Cy5.5-labelled hydrophobic CPP from natural protein]",Influx rate at earlier time points (15 min–1 h),[6],highest influx rate
LRRERQSRLRRERQSR [DPV15],Influx rate at earlier time points (15 min–1 h),[6],highest influx rate
"VPALR [Bip(1), Cy5.5-labelled hydrophobic CPP from natural protein]",Influx rate at earlier time points (15 min–1 h),[6],highest influx rate
Nc1cc(C(F)(F)F)c(-c2cc(N3CCOCC3)nc(N3CCOCC3)n2)cn1 [BKM120],Drug detected in sections of BBB spheroids by MALDI-MSI,[3],dramatic accumulation
same,BBB penetrance,[4],known to cross the BBB
same,Effect on ability of BBB spheroids to restrict entry of high molecular weight dextran,[5],did not affect
"RKKRRQRRR [HIV-1 Tat, established brain-penetrating standard]",product remaining after 3 h in working media,[7],50%
